Laboratory results taken from US8101773B2, “Hydroxy methyl phenyl pyrazolyl urea compounds useful in the treatment of cancer” (Bayer Healthcare LLC, priority 2006, dated 2012).
Numbering of substitutions follows the chain as printed. pIC50: −log10 of the molar value. Counter-ions that a name gives are not always drawn.

Columns and labels:
[1] = test system: Imatinib-resistant Bcr-Abl mutations; settings: cited from earlier work
Bcr-Abl E255K mutant = settings: cited from earlier work
Bcr-Abl kinase = settings: greater potency than Imatinib; cited from earlier work
[2] = target: T1, human recombinant c-Met intracellular kinase domain (Homo sapiens, UniProt P08581); assay: c-Met biochemical assay, ELISA format; settings: 0.2 μM ATP
T1 construct: C-terminal HIS-tagged intracellular kinase domain (956 to 1390 amino acids) human recombinant c-Met; His tag (C)
Experimental: An ELISA format was used for the c-Met biochemical assay. This assay uses the C-terminal HIS-tagged intracellular kinase domain (956 to 1390 amino acids) human recombinant c-Met in 96-well plates. 96-Well plates (Costar #9018) coated with poly(GluTyr) (Sigma # P0275) were used in this assay. The poly(GluTyr) substrate coated on the plate was phosphorylated in a 100 μL reaction volume with 2 nM c-Met protein in an assay buffer (50 mM HEPES pH7.0, 5 mM MnCl2, 0.1% BSA, 0.5 mM sodium orthovanadate, 0.1% β-mercaptoethanol), with 0.2 μM ATP (Sigma #A7699). […] After 25 minutes of incubation, the assay reaction was stopped with 25 μL of 100 mM EDTA. The plates were then washed, and wells were treated with 100 μL of 80 ng/mL anti-4G10-HRP antibody (Upstate #16-105) for 1 h. Plates were washed one final time, and were developed with 100 μL 3,3′,5,5′-TMB (Sigma #T8665), and quenched with 100 μL 1M HCl. Plates were read on a Victor 2 plate reader (Perkin Elmer) and IC50 analysis and calculation were performed using in-house software.

[3] = target: T2, mutant Bcr-Abl-T3151 kinase (Homo sapiens, UniProt P00519, T315I); assay: Bcr-Abl mutant T315I biochemical assay (MBP phosphorylation, 33P-ATP); settings: 50 μM ATP
T2 sequence (P00519 242-493 T315I limits assumed): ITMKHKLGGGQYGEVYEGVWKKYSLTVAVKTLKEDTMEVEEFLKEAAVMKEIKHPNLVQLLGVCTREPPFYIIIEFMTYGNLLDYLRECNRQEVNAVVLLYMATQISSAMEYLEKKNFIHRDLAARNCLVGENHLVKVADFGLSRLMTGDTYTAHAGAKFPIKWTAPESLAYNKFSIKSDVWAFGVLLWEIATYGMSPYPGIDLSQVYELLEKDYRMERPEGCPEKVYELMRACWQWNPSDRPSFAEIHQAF
Experimental: (§1) Bcr-Abl Wild Type and Mutant T315I Biochemical Assay
(§2) Bcr-Abl-wt or mutant Bcr-Abl-T3151 kinase (0.17 nM) was incubated with Myelin Basic Protein (MBP, 2 μM) in assay buffer consisting of 50 mM Tris pH 7.5, 10 mM MgCl2, 1 mM EGTA, 2 mM DTT, 50 μM ATP and 0.4 μCi of ^33P-ATP. Test compounds were added at varying concentrations (final DMSO conc=1%) prior to the addition of ATP. The reaction mixture was incubated for 1 hour at 32° C. The reaction was then stopped by addition of phosphoric acid (final conc=1%) and samples were transferred to filtermats and read in a betaplate reader. Inhibition of MBP phosphorylation by Bcr-Abl-wt or Bcr-Abl-T3151 was analyzed by using a 4 parameter fit and in-house software.

Bcr-Abl-wt kinase = target: T3, Bcr-Abl-wt kinase (Homo sapiens, UniProt P00519); assay: Bcr-Abl wild type biochemical assay (MBP phosphorylation, 33P-ATP); settings: 50 μM ATP
T3 sequence (P00519 242-493 limits assumed): T2 sequence (P00519 242-493 T315I limits assumed) with I74T
Experimental: as §1, §2

[4] = target: T4, Flk-1 (murine VEGFR-2) kinase domain (Mus musculus, UniProt P35918); assay: Flk-1 (murine VEGFR-2) biochemical assay, TR-FRET; settings: 10 μM ATP
T4 construct: 7 nM Flk-1 (kinase domain)
Experimental: Flk-1 (Murine VEGFR-2) Biochemical Assay
This assay was performed in 96-well opaque plates (Costar 3915) in the TR-FRET format. Reaction conditions were as follows: 10 μM ATP, 25 nM poly GT-biotin, 2 nM Eu-labelled phospho-Tyr Ab (PY20 Perkin Elmer), 10 nM APC (Perkin Elmer), 7 nM Flk-1 (kinase domain), 1% DMSO, 50 mM HEPES pH 7.5, 10 mM MgCl2, 0.1 mM EDTA, 0.015% BRIJ, 0.1 mg/mL BSA, 0.1% mercapto-ethanol). Reaction was initiated upon addition of enzyme. Final reaction volume in each well was 100 μL. Plates were read at both 615 and […] on a Perkin Elmer Victor V Multilabel counter at about 1.5-2.0 hours after reaction initiation. Signal was calculated as a ratio: (665 nm/615 nm)*10000 for each well.

[5] = In vitro tumor cell proliferation assay (Cell Titre-Glo), cell lines of interest; assay type: cell-based; settings: 72 hours, Cell Titer Glo; read-out: antiproliferative properties (IC50) in one or more cell lines of interest
Source text: In vitro Tumor Cell Proliferation Assay

early phase CML = settings: patients with early phase CML; cited from earlier work

T4 sequence (P35918 832-1160 limits assumed): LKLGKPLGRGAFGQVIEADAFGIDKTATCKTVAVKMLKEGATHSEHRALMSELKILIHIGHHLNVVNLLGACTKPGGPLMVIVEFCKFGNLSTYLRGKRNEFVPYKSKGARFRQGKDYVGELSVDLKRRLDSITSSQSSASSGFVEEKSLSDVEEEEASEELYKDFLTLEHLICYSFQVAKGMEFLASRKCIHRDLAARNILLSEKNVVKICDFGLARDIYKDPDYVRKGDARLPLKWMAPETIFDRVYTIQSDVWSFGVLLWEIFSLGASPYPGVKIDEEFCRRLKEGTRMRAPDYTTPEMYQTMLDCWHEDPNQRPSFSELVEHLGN
T1 sequence (P08581 956-1390): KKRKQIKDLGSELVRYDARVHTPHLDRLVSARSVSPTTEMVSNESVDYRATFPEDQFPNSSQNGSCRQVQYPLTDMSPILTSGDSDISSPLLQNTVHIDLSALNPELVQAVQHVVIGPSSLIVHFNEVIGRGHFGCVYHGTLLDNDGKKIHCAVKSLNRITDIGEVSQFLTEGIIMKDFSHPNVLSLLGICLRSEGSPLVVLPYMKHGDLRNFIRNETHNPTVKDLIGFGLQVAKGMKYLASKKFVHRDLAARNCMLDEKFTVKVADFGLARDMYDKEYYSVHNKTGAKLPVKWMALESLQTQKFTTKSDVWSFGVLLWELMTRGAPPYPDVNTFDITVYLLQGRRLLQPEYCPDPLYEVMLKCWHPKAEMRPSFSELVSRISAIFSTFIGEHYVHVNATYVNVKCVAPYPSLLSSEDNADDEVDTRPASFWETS

Cc1cn(-c2cc(NC(=O)c3ccc(C)c(Nc4nccc(-c5cccnc5)n4)c3)cc(C(F)(F)F)c2)cn1 [AMN-107, nilotinib]
inhibition of Imatinib-resistant Bcr-Abl mutations [1]: inhibit most Imatinib-resistant Bcr-Abl mutations, except for T315I
inhibition of E255K mutant in a biochemical assay (Bcr-Abl E255K mutant): somewhat weak inhibition
potency of inhibition of Bcr-Abl kinase activity relative to Imatinib (Bcr-Abl kinase): 20 fold

CNC(=O)c1cc(Oc2ccc(NC(=O)Nc3cc(C(C)(C)C)nn3-c3cccc(COC(=O)[C@H](NC(=O)OCC4c5ccccc5-c5ccccc54)C(C)C)c3)c(F)c2)ccn1 [Example 8, 3-(3-tert-Butyl-5-{[(2-fluoro-4-{[2-(methylcarbamoyl)pyridin-4-yl]oxy}phenyl)carbamoyl]amino}-1H-pyrazol-1-yl)benzyl-N-[(9H-fluoren-9-ylmethoxy)carbonyl]D valinate]
pIC50 [2]: > 4.70
pIC50 [3]: > 4.70

CNC(=O)c1cc(Oc2ccc(NC(=O)Nc3cc(C(C)(C)C)nn3-c3cccc(COC(=O)[C@H](N)C(C)C)c3)c(F)c2)ccn1 [Example 9, 3-(3-tert-Butyl-5-{[(2-fluoro-4-{[2-(methylcarbamoyl)pyridin-4-yl]oxy}phenyl)-carbamoyl]amino}-1H-pyrazol-1-yl)benzyl D-valinate]
pIC50 [2]: > 6.00
pIC50 (Bcr-Abl-wt kinase): > 6.00
pIC50 [3]: > 6.00
pIC50 [4]: > 6.00
pIC50 [5]: > 5.30

CNC(=O)c1cc(Oc2ccc(NC(=O)Nc3cc(C(C)(C)C)nn3-c3cccc(COC(=O)[C@@H](N)C(C)C)c3)c(F)c2)ccn1 [Example 10, 3-(3-tert-Butyl-5-{[(2-fluoro-4-{[2-(methylcarbamoyl)pyridin-4-yl]oxy}-phenyl)carbamoyl]amino}-1H-pyrazol-1-yl)benzyl L-valinate]
pIC50 [2]: > 6.00
pIC50 (Bcr-Abl-wt kinase): > 6.00
pIC50 [3]: > 6.00
pIC50 [4]: > 6.00

CNC(=O)c1cc(Oc2ccc(NC(=O)Nc3cc(C(C)(C)C)nn3-c3cccc(COC(C)=O)c3)c(F)c2)ccn1 [Example 11, 3-(3-tert-Butyl-5-{[(2-fluoro-4-{[2-(methylcarbamoyl)pyridin-4-yl]oxy}-phenyl)carbamoyl]amino}-1H-pyrazol-1-yl)benzyl acetate]
pIC50 [2]: > 6.00
pIC50 (Bcr-Abl-wt kinase): > 6.00
pIC50 [3]: > 6.00
pIC50 [4]: > 6.00
pIC50 [5]: > 5.30

CNC(=O)c1cc(Oc2ccc(NC(=O)Nc3cc(C(C)(C)C)nn3-c3cccc(COP(=O)(OC(C)(C)C)OC(C)(C)C)c3)c(F)c2)ccn1 [Example 12, Di-tert-butyl 3-(3-tert-butyl-5-{[(2-fluoro-4-{[2-(methylcarbamoyl)pyridin-4-yl]oxy}phenyl)carbamoyl]amino}-1H-pyrazol-1-yl)benzyl phosphate]
pIC50 [2]: > 4.70
pIC50 [3]: > 4.70
pIC50 [5]: > 5.30

CNC(=O)c1cc(Oc2ccc(NC(=O)Nc3cc(C(C)(C)C)nn3-c3cccc(COP(=O)(O)O)c3)c(F)c2)ccn1 [Example 13, 3-(3-tert-Butyl-5-{[(2-fluoro-4-{[2-(methylcarbamoyl)pyridin-4-yl]oxy}-phenyl)carbamoyl]amino}-1H-pyrazol-1-yl)benzyl dihydrogen phosphate dihydrochloride]
pIC50 [5]: > 5.30

CNC(=O)c1cc(Oc2ccc(NC(=O)Nc3cc(C(C)(C)C)nn3-c3cccc(COC(=O)CCC(=O)O)c3)c(F)c2)ccn1 [Example 14, 4-{[3-(3-tert-Butyl-5-{[(2-fluoro-4-{[2-(methylcarbamoyl)pyridin-4-yl]oxy}-phenyl)carbamoyl]amino}-1H-pyrazol-1-yl)benzyl]oxy}-4-oxobutanoic acid]
pIC50 [2]: > 6.00
pIC50 (Bcr-Abl-wt kinase): > 6.00
pIC50 [3]: > 6.00
pIC50 [4]: > 6.00
pIC50 [5]: > 5.30

CNC(=O)c1cc(Oc2ccc(NC(=O)Nc3cc(C(C)(C)C)nn3-c3cccc(COC(=O)COC)c3)c(F)c2)ccn1 [Example 15, 3-(3-tert-Butyl-5-{[(2-fluoro-4-{[2-(methylcarbamoyl)pyridin-4-yl]oxy}phenyl)carbamoyl]amino}-1H-pyrazol-1-yl)benzyl methoxyacetate]
pIC50 [2]: > 6.00
pIC50 (Bcr-Abl-wt kinase): > 6.00
pIC50 [3]: > 6.00
pIC50 [4]: > 6.00

CCC(=O)OCc1cccc(-n2nc(C(C)(C)C)cc2NC(=O)Nc2ccc(Oc3ccnc(C(=O)NC)c3)cc2F)c1 [Example 16, 3-(3-tert-butyl-5-{[(2-fluoro-4-{[2-(methylcarbamoyl)pyridin-4-yl]oxy}phenyl)carbamoyl]amino}-1H-pyrazol-1-yl)benzyl propionate]
pIC50 [2]: > 6.00
pIC50 (Bcr-Abl-wt kinase): > 6.00
pIC50 [3]: > 6.00
pIC50 [4]: > 6.00

CNC(=O)c1cc(Oc2ccc(NC(=O)Nc3cc(C(C)(C)C)nn3-c3cccc(COC(=O)CC(C)C)c3)c(F)c2)ccn1 [Example 17, 3-(3-tert-Butyl-5-{[(2-fluoro-4-{[2-(methylcarbamoyl)pyridin-4-yl]oxy}phenyl)carbamoyl]amino}-1H-pyrazol-1-yl)benzyl 3-methylbutanoate]
pIC50 [2]: > 4.70
pIC50 [3]: > 4.70

Cc1ccc(NC(=O)c2ccc(CN3CCN(C)CC3)cc2)cc1Nc1nccc(-c2cccnc2)n1 [Imatinib]
degree of response at both haematological and cytogenetic levels (early phase CML): greater than 90%
